Patent US8017611B2, “Pyridine and pyrazine derivatives -083” (AstraZeneca AB, priority 2007, dated 2011)

Target: T1, recombinant Axl tyrosine kinase (Homo sapiens, UniProt P30530)
T1 construct: encompassing amino acids 473 to 894 of Axl; GST (N); made in house; host or cells: SF126 insect cells
T1 sequence (P30530 473-894): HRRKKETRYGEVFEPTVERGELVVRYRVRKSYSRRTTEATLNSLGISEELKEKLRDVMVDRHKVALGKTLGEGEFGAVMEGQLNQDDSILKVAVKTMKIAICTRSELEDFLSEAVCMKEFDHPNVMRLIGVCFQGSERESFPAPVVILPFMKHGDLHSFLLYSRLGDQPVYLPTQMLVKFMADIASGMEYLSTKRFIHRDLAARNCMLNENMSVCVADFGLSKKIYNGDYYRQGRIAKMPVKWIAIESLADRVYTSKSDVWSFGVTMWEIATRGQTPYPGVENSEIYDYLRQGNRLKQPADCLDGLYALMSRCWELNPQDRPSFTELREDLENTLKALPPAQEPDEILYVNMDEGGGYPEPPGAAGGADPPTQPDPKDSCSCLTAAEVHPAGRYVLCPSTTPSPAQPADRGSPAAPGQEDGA
Test: In vitro Axl kinase assay (AlphaScreen), Test (a)
Format: biochemical
Settings: for inhibition at 1 µM / % Axl tyrosine kinase inhibition at 1 μM concentration: test compound at 1 μM, first value quoted; for inhibition at 1 µM: read-out: % Axl tyrosine kinase inhibition at 1 μM concentration; for % Axl tyrosine kinase inhibition at 1 μM concentration (second value, †): mean calculated from a larger number of replicates than the first value

Row | % Axl tyrosine kinase inhibition at 1 μM concentration [%] | Structure (SMILES) | also measured
1 | – | COc1cc(-c2cnc(N)c(-c3nc4ncccc4o3)c2)ccc1OCCN1CCOCC1 [Example 43C.2, 5-[3-methoxy-4-(2-morpholinoethoxy)phenyl]-3-oxazolo[4,5-b]pyridin-2-yl-pyridin-2-amine] | inhibition at 1 µM: 97.1%
2 | – | CN1CCC(n2cc(-c3cnc(N)c(-c4nc5ccccc5o4)n3)cn2)CC1 [Example 18, 3-(1,3-benzoxazol-2-yl)-5-[1-(1-methyl-4-piperidyl)pyrazol-4-yl]pyrazin-2-amine] | inhibition at 1 µM: 99.3%
3 | 91.4 | Nc1ncc(-c2ccc(C(=O)NCCO)cc2)cc1-c1nc2ncccc2o1 [Example 10A.5] | –
4 | 99.9 | COc1cc(-c2cnc(N)c(-c3nc4ncccc4o3)c2)ccc1OC1CCCN(C)C1 (centres unmarked) [Example 43C.9] | –
5 | 40.3 | Nc1ncc(-c2cccc(N3CCCCC3)c2)cc1-c1nc2ncccc2o1 [Example 10A.17] | –
6 | 96.5 | Nc1ncc(-c2cccc(CN3CCCC3)c2)cc1-c1nc2cccnc2o1 [Example 9A.8] | –
7 | 99.3 | COc1cc(-c2cnc(N)c(-c3nc4ncccc4o3)c2)ccc1OCCCN1CCN(C)CC1 [Example 43C.14] | –
8 | 98.7 | Nc1ncc(-c2ccc(OC[C@H]3CCCN3)cc2)cc1-c1nc2ncccc2o1 [Example 43B.28] | –
9 | 99.8 | Nc1ncc(-c2cnn(CCN3CCC(O)CC3)c2)cc1-c1nc2ccccc2o1 [Example 31.9] | –
10 | 99.3 | COc1cc(-c2cnc(N)c(-c3nc4ncccc4o3)c2)ccc1OC1CCNC1 (centres unmarked) [Example 43C.23] | –
11 | 95.9 | CN1CCC(N(C)C(=O)c2ccc(-c3cnc(N)c(-c4nc5cccnc5o4)c3)cc2)CC1 [Example 45A.31] | –
12 | – | CN(C)CCNC(=O)c1ccc(-c2cnc(N)c(-c3nc4cccnc4o3)c2)cc1 [Example 44, 4-(6-amino-5-(oxazolo[5,4-b]pyridin-2-yl)pyridin-3-yl)-N-(2-(dimethylamino)ethyl)benzamide] | inhibition at 1 µM: 99.6%
13 | 46.4 | Nc1ncc(-c2cccc(N3CCCCC3)c2)cc1-c1nc2ccccc2o1 [Example 2.46] | –
14 | 95.3 | Nc1ncc(-c2cccc(CN3CCCCC3)c2)cc1-c1nc2cccnc2o1 [Example 9A.9] | –
15 | 99.9 | CN(C)c1nn(C2CCNCC2)cc1-c1cnc(N)c(-c2nc3ccccc3o2)c1 [Example 62.3] | –
16 | 98.1 | CN1CCN(CCOc2ccc(-c3cnc(N)c(-c4nc5ncccc5o4)c3)cc2)CC1 [Example 43B.7] | –
17 | 94.3 | CN1CCN(C(=O)c2cccc(-c3cnc(N)c(-c4nc5cnccc5o4)c3)c2)CC1 [Example 8A.19] | –
18 | 80.8 | CN1CCN(C(=O)c2cccc(-c3cnc(N)c(-c4nc5cccnc5o4)c3)c2)CC1 [Example 9A.18] | –
19 | 98.4 | Nc1ncc(-c2ccc(C(=O)N3CC(N)C3)cc2)cc1-c1nc2cccnc2o1 [Example 45A.105] | –
20 | 98.1 | CN1CCC(n2cc(-c3cnc(N)c(-c4nc5cc(C(F)(F)F)ccc5o4)c3)cn2)CC1 [Example 7.11] | –
21 | 98.8 | CN(C)CCCNC(=O)c1ccc(-c2cnc(N)c(-c3nc4cccnc4o3)c2)cc1 [Example 9A.11] | –
22 | 97.7 | N#CCc1ccc(-c2cnc(N)c(-c3nc4cccnc4o3)c2)cc1 [Example 9A.16] | –
23 | 55.3 | Nc1ncc(-c2cccc(N3CCOCC3)c2)cc1-c1nc2ncccc2o1 [Example 10A.1] | % Axl tyrosine kinase inhibition at 1 μM concentration (second value, †): 52.6%
24 | 97.8 | Nc1ncc(-c2ccc(C(=O)N3CCOCC3)cc2)cc1-c1nc2cnccc2o1 [Example 8A.12] | –
25 | 99.0 | COc1cc(N2CCNCC2)ccc1-c1cnc(N)c(-c2nc3ccccc3o2)c1 [Example 2.38] | –
26 | – | CN(C)CCNC(=O)c1ccc(-c2cnc(N)c(-c3nc4ncccc4o3)c2)cc1 [Example 10A.15, 4-(6-amino-5-oxazolo[4,5-b]pyridin-2-yl-3-pyridyl)-N-(2-dimethylaminoethyl)benzamide] | inhibition at 1 µM: 98.4%
27 | 98.4 | Nc1ncc(-c2ccc(C(=O)NCCCN3CC[C@@H](F)C3)cc2)cc1-c1nc2cccnc2o1 [Example 45A.39] | –
28 | 99.4 | N#CCc1ccc(-c2cnc(N)c(-c3nc4cnccc4o3)c2)cc1 [Example 8A.16] | –

Row | % Axl tyrosine kinase inhibition at 1 μM concentration [%] | Structure (SMILES) | also measured
29 | 100.0 | CCN1CCC(n2cc(-c3cnc(N)c(-c4nc5ccccc5o4)c3)cn2)CC1 [Example 4.1] | –
30 | 98.9 | CC(=O)NCCC(=O)N1CCC(n2cc(-c3cnc(N)c(-c4nc5ncccc5o4)c3)cn2)CC1 [Example 59.4] | –
31 | 99.8 | CN1CCC(n2cc(-c3cnc(N)c(-c4nc5ccccc5o4)c3)c(C(N)=O)n2)CC1 [Example 41.35] | –
32 | 100.0 | COc1cccc2nc(-c3cc(-c4cn(C5CCNCC5)nc4CO)cnc3N)oc12 [Example 62.13] | –
33 | 97.8 | CN(C)CCCN(C)C(=O)c1ccc(-c2cnc(N)c(-c3nc4cccnc4o3)c2)cc1 [Example 45A.54] | –
34 | 99.2 | CN(C)CCCn1cc(-c2cnc(N)c(-c3nc4ccccc4o3)c2)cn1 [Example 27.4] | –
35 | – | COc1cc(N2CCN(C)CC2)ccc1-c1cnc(N)c(-c2nc3ncccc3o2)c1 [Example 25.6, 5-[2-methoxy-4-(4-methylpiperazin-1-yl)phenyl]-3-oxazolo[4,5-b]pyridin-2-yl-pyridin-2-amine] | inhibition at 1 µM: 99.5%
36 | 98.9 | Nc1ncc(-c2ccc(CN3CCOCC3)cc2)cc1-c1nc2cnccc2o1 [Example 8A.18] | % Axl tyrosine kinase inhibition at 1 μM concentration (second value, †): 99.0%
37 | 100.0 | Nc1ncc(-c2cn(C3CCNCC3)nc2CO)cc1-c1nc2c(F)cccc2o1 [Example 62.6] | –
38 | 92.7 | CN(C)S(=O)(=O)c1ccc(-c2cnc(N)c(-c3nc4ccccc4o3)n2)cc1 [Example 20.12] | –
39 | 99.8 | Cc1nn(C2CCNCC2)cc1-c1cnc(N)c(-c2nc3c(C#N)cccc3o2)c1 [Example 62.11] | –
40 | 99.3 | COc1cc(-c2cnc(N)c(-c3nc4ncccc4o3)c2)ccc1OCCC1CCNCC1 [Example 43C.31] | –
41 | 100.0 | COCc1nn(C2CCN(C)CC2)cc1-c1cnc(N)c(-c2nc3cccc(OC)c3o2)c1 [Example 41.43] | –
42 | 89.2 | Nc1ncc(-c2cccc(N3CCCCC3)c2)nc1-c1nc2ccccc2o1 [Example 20.4] | –
43 | – | Nc1ncc(-c2cnn(C3CCNCC3)c2)cc1-c1nc2ncccc2o1 [Example 10, 3-Oxazolo[4,5-b]pyridin-2-yl-5-[1-(4-piperidyl)pyrazol-4-yl]pyridin-2-amine] | inhibition at 1 µM: 98.8%
44 | 40.3 | COCCOc1ccc(-c2cnc(N)c(-c3nc4ccccc4o3)c2)cc1 [Example 2.9] | –
45 | 99.4 | CN1CCC[C@H]1COc1ccc(-c2cnc(N)c(-c3nc4ncccc4o3)c2)cc1 [Example 43B.5] | –
46 | 98.5 | CC(=O)N1CCC(n2cc(-c3cnc(N)c(-c4nc5ncccc5o4)c3)cn2)CC1 [Example 57.1] | –
47 | 93.6 | Nc1ncc(-c2ccc(OCCN3CCNCC3)cc2)cc1-c1nc2ncccc2o1 [Example 43B.29] | –
48 | 96.1 | CN1CCN(C(=O)c2ccc(-c3cnc(N)c(-c4nc5ncccc5o4)c3)cc2)CC1 [Example 45B.2] | –
49 | 99.6 | Nc1ncc(-c2ccc(C(=O)N3CCCC3CN3CCCCCC3)cc2)cc1-c1nc2cccnc2o1 (centres unmarked) [Example 45A.17] | –
50 | 96.1 | CCN1CCC(CNC(=O)c2ccc(-c3cnc(N)c(-c4nc5cccnc5o4)c3)cc2)CC1 [Example 45A.47] | –
51 | 98.8 | Nc1ncc(-c2ccc(C(=O)N3CCCCC3CCN3CCCC3)cc2)cc1-c1nc2cccnc2o1 (centres unmarked) [Example 45A.29] | –
52 | 100.0 | N#Cc1nn(C2CCNCC2)cc1-c1cnc(N)c(-c2nc3ccccc3o2)c1 [Example 62.1] | –
53 | 99.9 | CN1CCC(Cn2cc(-c3cnc(N)c(-c4nc5ccccc5o4)c3)cn2)CC1 [Example 41.6] | –
54 | 98.9 | Nc1ncc(-c2ccc(C(=O)N3CCC(O)CC3)cc2)cc1-c1nc2ccccc2o1 [Example 2.11] | –
55 | – | Nc1ncc(-c2cnn(C3CCNCC3)c2)cc1-c1nc2cnccc2o1 [Example 8, 3-Oxazolo[4,5-c]pyridin-2-yl-5-[1-(4-piperidyl)pyrazol-4-yl]pyridin-2-amine] | inhibition at 1 µM: 99.2%

Row | Structure (SMILES) | % Axl tyrosine kinase inhibition at 1 μM concentration [%] | also measured
56 | CN1C2CCC1CC(Oc1ccc(-c3cnc(N)c(-c4nc5ncccc5o4)c3)cc1)C2 (centres unmarked) [Example 43B.21] | 99.6 | –
57 | CC(=O)N1CCC(n2cc(-c3cnc(N)c(-c4nc5ccccc5o4)c3)cn2)CC1 [Example 34.1] | 99.8 | –
